23 molecules from PMC6877352, “Modifying the Siderophore Triacetylfusarinine C for Molecular Imaging of Fungal Infection” (Molecular imaging and biology, 2019) can be followed below.

Experiment [1] concerns A. fumigatus wildtype (ATCC46645). Nature of the experiment: In vitro uptake assay in A. fumigatus. Format: cell-based, Aspergillus fumigatus. Particulars: iron-starvation condition, 45 min, normalized to [^68Ga]TAFC uptake from the same experiment, n = 3. The protocol: For in vitro uptake studies, A. fumigatus wildtype (ATCC46645) was used. Fungal strain was cultured at 37 °C in Aspergillus minimal medium (AMM) containing 1 % (m/v) glucose as carbon source, 20 mM glutamine as nitrogen source, salts, and trace elements. Iron-sufficient media were prepared by adding FeSO4 to a final concentration of 30 μM. For iron-deficient conditions, supplementation of iron was omitted. Iron starvation was verified by the detection of extracellular siderophore production which is suppressed by iron supplementation.
Uptake assays were performed in either iron-deficient or iron-sufficient A. fumigatus wildtype cultures. In a 96-well MultiScreen Filter Plates HTS (1 μm glass fiber filter, Merck Millipore, Darmstadt, Germany), 180 μl of A. fumigatus suspended in iron-replete or iron-depleted medium was added. [^68Ga]siderophores (approx. 1 × 10^5 cpm, 80 nM) were incubated with either PBS pH 7.4 (total series) or blocking solution (10 μM [Fe]TAFC) (non-specific series) at RT for 45 min in quadriplicates. The incubation was interrupted by suction of the medium and the plate was washed twice with ice-cold TRIS-buffered saline (10 mM, pH 7.3). The filters were isolated and the remaining activities were measured in the gamma counter. The uptake was calculated as % uptake of total activity added; each assay was repeated three times. To normalize uptake variations between different fungal cultures, the uptake of each [^68Ga]siderophore was expressed as the ratio to [^68Ga]TAFC uptake from the same experiment. The mean values of three different assays were used to quantitatively compare the difference in uptake between the compounds.

For experiment [2], the system named is A. fumigatus mutant strain ΔsidA/ΔftrA. Nature of the experiment: Siderophore utilization growth assay. Format: cell-based, Aspergillus fumigatus. Conditions: 37 °C; for degree of utilization / growth support by [Fe]siderophore: 0.1-100 μM [Fe]siderophore in AMM; for concentration of [Fe]siderophore at which growth was supported: 48 h incubation. The source says: For siderophore utilization growth assays, A. fumigatus mutant strain ΔsidA/ΔftrA [7], which can grow only in the presence of externally added iron-siderophores or at high iron concentrations, was used. The fungal strain was inoculated in iron-deficient culture as described above.
To investigate the ability or inability of A. fumigatus to take up and utilize [Fe]siderophores as iron source, a growth assay with the A. fumigatus mutant strain ΔsidA/ΔftrA was employed. In a 24-well plate, aliquots of 10^3 conidia of mutant strain were point inoculated on 1 ml of AMM containing 0.1, 1, 10, 50, or 100 μM of [Fe]siderophore and incubated at 37 °C for 48 h. For the control, fungi were grown in iron-limited AMM without adding [Fe]siderophore.

Consider `CC(=O)NC1CCCN(O)C(=O)C=C(C)CCOC(=O)C(NC(=O)CCC(=O)O)CCCN(O)C(=O)C=C(C)CCOC(=O)C(NC(C)=O)CCCN(O)C(=O)C=C(C)CCOC1=O` (centres unmarked) (68Ga complex, metal not drawn) [DAFC(suc)], for which the “uptake ratio to [^68Ga]TAFC” value in experiment [1] is 0.33.

As to `CCCC(=O)NC1CCCN([O-])C(=O)C=C(C)CCOC(=O)C(NC(C)=O)CCCN([O-])C(=O)C=C(C)CCOC(=O)C(NC(C)=O)CCCN([O-])C(=O)C=C(C)CCOC1=O.[Fe+3]` (centres unmarked) [[Fe]DABuFC, butanoyl[Fe]DAFC], the “degree of utilization / growth support by [Fe]siderophore” value (from here on “degree of utilization / growth support”) in experiment [2] (48 h) is “Medium degree”.

Take `CCC(=O)NC1CCCN([O-])C(=O)C=C(C)CCOC(=O)C(NC(C)=O)CCCN([O-])C(=O)C=C(C)CCOC(=O)C(NC(C)=O)CCCN([O-])C(=O)C=C(C)CCOC1=O.[Fe+3]` (centres unmarked) [[Fe]DAPFC, propanoyl[Fe]DAFC]: in experiment [2] (48 h), the “degree of utilization / growth support” value is “Medium degree”.

As to `CC(=O)NC1CCCN([O-])C(=O)C=C(C)CCOC(=O)C(NC(C)=O)CCCN([O-])C(=O)C=C(C)CCOC(=O)C(N)CCCN([O-])C(=O)C=C(C)CCOC1=O.[Fe+3]` (centres unmarked) [[Fe]DAFC, diacetyl[Fe]FSC], in experiment [2], the “concentration of [Fe]siderophore at which growth was supported” value (“concentration of [Fe]siderophore” for short) was 0.1 µM.

For `CC1=CC(=O)N([O-])CCCC(NC(=O)CN)C(=O)OCCC(C)=CC(=O)N([O-])CCCC(NC(=O)CN)C(=O)OCCC(C)=CC(=O)N([O-])CCCC(NC(=O)CN)C(=O)OCC1.[Fe+3]` (centres unmarked) [[Fe]FSC(gly)3, triglycyl[Fe]FSC], the “degree of utilization / growth support” value in experiment [2] (48 h) is recorded as “low degree”. In addition, the “concentration of [Fe]siderophore” value in experiment [2] is 1 µM.

Consider `CC(=O)NC1CCCN([O-])C(=O)C=C(C)CCOC(=O)C(NC(=O)CN)CCCN([O-])C(=O)C=C(C)CCOC(=O)C(NC(C)=O)CCCN([O-])C(=O)C=C(C)CCOC1=O.[Fe+3]` (centres unmarked) [[Fe]DAFC(gly), glycyl[Fe]DAFC], for which the “degree of utilization / growth support” value in experiment [2] (48 h) is reported as “low degree”. Further, the “concentration of [Fe]siderophore” value in experiment [2] is 1 µM.

In the case of `CCC(=O)NC1CCCN(O)C(=O)C=C(C)CCOC(=O)C(NC(C)=O)CCCN(O)C(=O)C=C(C)CCOC(=O)C(NC(C)=O)CCCN(O)C(=O)C=C(C)CCOC1=O` (centres unmarked) (68Ga complex, metal not drawn) [DAPFC], the “uptake ratio to [^68Ga]TAFC” value in experiment [1] is recorded as 0.99; in experiment [1] (listed as [^68Ga]DAPFC), “around 1”.

For the molecule `CC(=O)NC1CCCN([O-])C(=O)C=C(C)CCOC(=O)C(NC(=O)CCC(=O)O)CCCN([O-])C(=O)C=C(C)CCOC(=O)C(NC(=O)CCC(=O)O)CCCN([O-])C(=O)C=C(C)CCOC1=O.[Fe+3]` (centres unmarked) [[Fe]MAFC(suc)2, disuccinyl[Fe]MAFC], the “degree of utilization / growth support” value in experiment [2] (48 h) was “low degree”. For the same molecule, in experiment [2], the “concentration of [Fe]siderophore” value turned out to be 1 µM.

Turning to `CC(=O)NC1CCCN(O)C(=O)C=C(C)CCOC(=O)C(N)CCCN(O)C(=O)C=C(C)CCOC(=O)C(N)CCCN(O)C(=O)C=C(C)CCOC1=O` (centres unmarked) (68Ga complex, metal not drawn) [MAFC], the “uptake ratio to [^68Ga]TAFC” value in experiment [1] is 0.26.

As to `CC(=O)NC1CCCN(O)C(=O)C=C(C)CCOC(=O)C(NC(=O)c2ccccc2)CCCN(O)C(=O)C=C(C)CCOC(=O)C(NC(C)=O)CCCN(O)C(=O)C=C(C)CCOC1=O` (centres unmarked) (68Ga complex, metal not drawn) [DABzFC], in experiment [1], the “uptake ratio to [^68Ga]TAFC” value was 0.53.

`CC(=O)NC1CCCN([O-])C(=O)C=C(C)CCOC(=O)C(NC(=O)CN)CCCN([O-])C(=O)C=C(C)CCOC(=O)C(NC(=O)CN)CCCN([O-])C(=O)C=C(C)CCOC1=O.[Fe+3]` (centres unmarked) [[Fe]MAFC(gly)2, diglycyl[Fe]MAFC]: the “degree of utilization / growth support” value in experiment [2] (48 h) is recorded as “low degree”. For the same molecule, the “concentration of [Fe]siderophore” value in experiment [2] stood at 1 µM.

For `CC(=O)NC1CCCN([O-])C(=O)C=C(C)CCOC(=O)C(N)CCCN([O-])C(=O)C=C(C)CCOC(=O)C(N)CCCN([O-])C(=O)C=C(C)CCOC1=O.[Fe+3]` (centres unmarked) [[Fe]MAFC, acetyl[Fe]FSC], in experiment [2], the “concentration of [Fe]siderophore” value was determined as 0.1 µM.

tributanoyl[Fe]FSC [[Fe]TBuFC]: the “degree of utilization / growth support” value in experiment [2] (48 h) is reported as “Medium degree”.

As for `CC(=O)N[C@H]1CCCN(O)C(=[OH+])/C=C(/C)CCOC(=O)[C@@H](NC(C)=O)CCCN(O)C(=[OH+])/C=C(/C)CCOC(=O)[C@@H](NC(C)=O)CCCN(O)C(=[OH+])/C=C(/C)CCOC1=O.[Fe]` [[Fe]TAFC, triacetyl[Fe]FSC, reference compound], the “degree of utilization / growth support” value in experiment [2] (48 h) is “Medium degree”.

Consider `CC(=O)NC1CCCN(O)C(=O)C=C(C)CCOC(=O)C(NC(=O)CN)CCCN(O)C(=O)C=C(C)CCOC(=O)C(NC(C)=O)CCCN(O)C(=O)C=C(C)CCOC1=O` (centres unmarked) (68Ga complex, metal not drawn) [DAFC(gly)], for which the “uptake ratio to [^68Ga]TAFC” value in experiment [1] is 0.89; in experiment [1] (listed as [^68Ga]DAFC(gly)), “around 1”.

For the molecule `CC(=O)NC1CCCN(O)C(=O)C=C(C)CCOC(=O)C(NC(=O)CCC(=O)O)CCCN(O)C(=O)C=C(C)CCOC(=O)C(NC(=O)CCC(=O)O)CCCN(O)C(=O)C=C(C)CCOC1=O` (centres unmarked) (68Ga complex, metal not drawn) [MAFC(suc)2], the “uptake ratio to [^68Ga]TAFC” value is on record as 0.04 in experiment [1] and “less than 0.05” in experiment [1] (listed as [^68Ga]MAFC(suc)2).

`CC(=O)NC1CCCN([O-])C(=O)C=C(C)CCOC(=O)C(NC(=O)CCC(=O)O)CCCN([O-])C(=O)C=C(C)CCOC(=O)C(NC(C)=O)CCCN([O-])C(=O)C=C(C)CCOC1=O.[Fe+3]` (centres unmarked) [[Fe]DAFC(suc), succinyl[Fe]DAFC]: the “degree of utilization / growth support” value in experiment [2] (48 h) is “low degree”. In experiment [2], the “concentration of [Fe]siderophore” value is 1 µM.

In the case of `CC1=CC(=O)N([O-])CCCC(N)C(=O)OCCC(C)=CC(=O)N([O-])CCCC(N)C(=O)OCCC(C)=CC(=O)N([O-])CCCC(N)C(=O)OCC1.[Fe+3]` (centres unmarked) [[Fe]FSC, [Fe]fusarinine C, reference compound], the “concentration of [Fe]siderophore” value in experiment [2] turned out to be 0.1 µM.

As for `CC1=CC(=O)N([O-])CCCC(NC(=O)CCC(=O)O)C(=O)OCCC(C)=CC(=O)N([O-])CCCC(NC(=O)CCC(=O)O)C(=O)OCCC(C)=CC(=O)N([O-])CCCC(NC(=O)CCC(=O)O)C(=O)OCC1.[Fe+3]` (centres unmarked) [[Fe]FSC(suc)3, trisuccinyl[Fe]FSC], in experiment [2] (50 μM, 48 h), the “growth at 50 μM [Fe]siderophore” value is “no growth”. In addition, the “growth at 100 μM [Fe]siderophore” value in experiment [2] (100 μM, 48 h) is given as “sporulation defect”. Further, the “degree of utilization / growth support” value in experiment [2] (48 h) is reported as “lowest level of growth”.

As to `CC(=O)NC1CCCN([O-])C(=O)C=C(C)CCOC(=O)C(NC(=O)c2ccccc2)CCCN([O-])C(=O)C=C(C)CCOC(=O)C(NC(C)=O)CCCN([O-])C(=O)C=C(C)CCOC1=O.[Fe+3]` (centres unmarked) [[Fe]DABzFC, benzoyl[Fe]DAFC], the “degree of utilization / growth support” value in experiment [2] (48 h) is given as “Medium degree”.

`CC(=O)NC1CCCN(O)C(=O)C=C(C)CCOC(=O)C(NC(=O)CN)CCCN(O)C(=O)C=C(C)CCOC(=O)C(NC(=O)CN)CCCN(O)C(=O)C=C(C)CCOC1=O` (centres unmarked) (68Ga complex, metal not drawn) [MAFC(gly)2]: the “uptake ratio to [^68Ga]TAFC” value in experiment [1] is reported as 0.03; in experiment [1] (listed as [^68Ga]MAFC(gly)2), “less than 0.05”.

For `CC(=O)NC1CCCN(O)C(=O)C=C(C)CCOC(=O)C(NC(C)=O)CCCN(O)C(=O)C=C(C)CCOC(=O)C(N)CCCN(O)C(=O)C=C(C)CCOC1=O` (centres unmarked) (68Ga complex, metal not drawn) [DAFC], in experiment [1], the “uptake ratio to [^68Ga]TAFC” value is given as 0.56.

`CC1=CC(=O)N(O)CCCC(NC(=O)CN)C(=O)OCCC(C)=CC(=O)N(O)CCCC(NC(=O)CN)C(=O)OCCC(C)=CC(=O)N(O)CCCC(NC(=O)CN)C(=O)OCC1` (centres unmarked) (68Ga complex, metal not drawn) [FSC(gly)3]: the “uptake ratio to [^68Ga]TAFC” value in experiment [1] is on record as 0.01; in experiment [1] (listed as [^68Ga]FSC(gly)3) it was “less than 0.05”.
